In one experiment the target is SARS-COV2 Mpro (Severe acute respiratory syndrome coronavirus 2, UniProt P0DTD1). Description: COVID-19 (nCoV-2019, SARS-CoV2) Mpro enzymatic assay. To be noted: read-out: COVID-19 Mpro IC50. It is filed as biochemical. How it is done: Compounds were assayed using standard methods to assess compound activity and IC50. As an exemplary for assessment of the SARS-COV2 Mpro, the C-His6-tagged Mpro (NC_045512) was cloned, expressed in E. coli and purified. The assay buffer contained 20 mM of Tris-HCl (pH 7.3), 100 mM of NaCl, 1 mM of EDTA, 5 mM of TCEP and 0.1% BSA. The final concentrations of the Mpro protein and substrate were 25 nM and 25 μM, respectively, in the Mpro enzymatic assay.
The compounds were added to an assay plate. For 100% inhibition control (HPE, hundred percent effect), 1 μM GC376 was added.
(§1) IC50 values of compounds were calculated with the GraphPad Prism software using the nonlinear regression model of log(inhibitor) vs. response—Variable slope (four parameters). The inhibition activity was calculated using the formula below, IC50 values is calculated using the Inhibition % data.
[formula] • #HEP: Hundred percent effect controls. […] Containing enzyme+substrate, no compound. • Sample: Compound activity testing wells. Containing compound+enzyme+substrate. • BG: Compound background control wells. Containing compound+substrate, no enzyme.

A further experiment concerns the target 229E Mpro (Human coronavirus 229E, UniProt P0C6X1). Description: 229E Mpro enzymatic assay. It is filed as biochemical, HCoV 229E. How it is done: (§2) Compounds were assayed using standard methods to assess compound activity and IC50. As an exemplary for assessment of the SARS-COV2 Mpro, the C-His6-tagged Mpro (NC_045512) was cloned, expressed in E. coli and purified. The assay buffer contained 20 mM of Tris-HCl (pH 7.3), 100 mM of NaCl, 1 mM of EDTA, 5 mM of TCEP and 0.1% BSA. The final concentrations of the Mpro protein and substrate were 25 nM and 25 μM, respectively, in the Mpro enzymatic assay. The Km of the Mpro substrate for the protease was 13.5 μM.
(§3) The compounds were added to an assay plate. For 100% inhibition control (HPE, hundred percent effect), 1 μM GC376 was added. For no inhibition control (ZPE, zero percent effect), no compound was added.
as §1
(§4) [formula] • #HEP: Hundred percent effect controls. Containing substrate+enzyme+1 μM GC376. • ZPE: Zero percent effective controls. Containing enzyme+substrate, no compound. • Sample: Compound activity testing wells. Containing compound+enzyme+substrate. • BG: Compound background control wells. Containing compound+substrate, no enzyme.

Another experiment concerns the target OC43 Mpro (Human coronavirus OC43, UniProt P0C6X6). Description: OC43 Mpro enzymatic assay. The format is biochemical, HCoV OC43. The method, then: as §2, §3, §1, §4

The structures appear in SMILES notation. Where two headings read alike, the source gives them in different places.

Chain of OC43 Mpro (P0C6X6 3247-3549): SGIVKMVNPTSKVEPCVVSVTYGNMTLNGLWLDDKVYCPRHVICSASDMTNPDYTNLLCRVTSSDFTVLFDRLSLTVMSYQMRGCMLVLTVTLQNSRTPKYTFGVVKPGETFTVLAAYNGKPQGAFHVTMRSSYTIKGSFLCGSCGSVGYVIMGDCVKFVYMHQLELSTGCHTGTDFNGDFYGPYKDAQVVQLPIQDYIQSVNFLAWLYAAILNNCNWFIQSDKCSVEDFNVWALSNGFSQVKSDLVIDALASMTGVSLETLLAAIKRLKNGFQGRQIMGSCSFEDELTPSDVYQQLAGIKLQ
Chain of 229E Mpro (P0C6X1 2966-3267): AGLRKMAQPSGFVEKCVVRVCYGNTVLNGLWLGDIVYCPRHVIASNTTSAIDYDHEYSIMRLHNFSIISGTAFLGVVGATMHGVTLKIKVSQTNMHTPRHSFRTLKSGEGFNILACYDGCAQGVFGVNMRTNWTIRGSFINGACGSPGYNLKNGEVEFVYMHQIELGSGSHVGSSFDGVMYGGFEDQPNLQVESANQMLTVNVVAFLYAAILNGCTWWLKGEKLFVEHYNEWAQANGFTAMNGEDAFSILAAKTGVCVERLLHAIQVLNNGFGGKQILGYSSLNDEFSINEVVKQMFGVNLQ

As to `CN(C(=O)[C@@H](NC(=O)c1cnccn1)C(C)(C)C)[C@@H](CC1CC1)C(=O)N[C@H](C#N)C[C@@H]1CCCNC1=O` [Compound 102, N-[(1S)-1-[[(1S)-2-[[(1S)-1-cyano-2-[(3S)-2-oxo-3-piperidyl]ethyl]amino]-1-(cyclopropylmethyl)-2-oxo-ethyl]-methyl-carbamoyl]-2,2-dimethyl-propyl]pyrazine-2-carboxamide], the half-maximal inhibitory concentration (IC50) on SARS-COV2 Mpro (Table 3) is more than 30000 nM; against 229E Mpro (Table 3), 2000 to 10000 nM; against OC43 Mpro (Table 3) it was 10000 to 30000 nM.

In the case of `N#C[C@H](C[C@@H]1CCNC1=O)NC(=O)[C@H](CC1CC1)NC(=O)[C@H](Cc1ccc(F)cc1)NC(=O)c1cnccn1` [Compound 125], the figures for the IC50 on SARS-COV2 Mpro (Table 3), against 229E Mpro (Table 3) and on OC43 Mpro (Table 3) were 2000 to 10000 nM, less than 2000 nM and less than 2000 nM, respectively.

Consider `C[C@@H](OC(C)(C)C)[C@H](NC(=O)C(F)(F)F)C(=O)N1C[C@H]2[C@@H]([C@H]1C(=O)N[C@H](C#N)C[C@@H]1CC3(CC3)NC1=O)C2(C)C` [Compound 137, (1R,2S,5S)-3-[(2S,3R)-3-tert-butoxy-2-[(2,2,2-trifluoroacetyl)amino]butanoyl]-N-[(1S)-1-cyano-2-[(6R)-5-oxo-4-azaspiro[2.4]heptan-6-yl]ethyl]-6,6-dimethyl-3-azabicyclo[3.1.0]hexane-2-carboxamide], for which the IC50 at SARS-COV2 Mpro (Table 5), at 229E Mpro (Table 5) and on OC43 Mpro (Table 5) was less than 2000 nM each time.

As to `C[C@H](OC(C)(C)C)[C@H](NC(=O)C(F)(F)F)C(=O)N1C[C@H]2[C@@H]([C@H]1C(=O)N[C@H](C#N)C[C@@H]1CC3(CC3)NC1=O)C2(C)C` [Compound 138, (1R,2S,5S)-3-[(2S,3S)-3-tert-butoxy-2-[(2,2,2-trifluoroacetyl)amino]butanoyl]-N-[(1S)-1-cyano-2-[(6R)-5-oxo-4-azaspiro[2.4]heptan-6-yl]ethyl]-6,6-dimethyl-3-azabicyclo[3.1.0]hexane-2-carboxamide], the IC50 on SARS-COV2 Mpro (Table 5), against 229E Mpro (Table 5) and against OC43 Mpro (Table 5) was less than 2000 nM each time.

Consider `COC(C)(C)[C@H](NC(=O)C(F)(F)F)C(=O)N1C[C@H]2[C@@H]([C@H]1C(=O)N[C@H](C#N)C[C@@H]1CC3(CC3)NC1=O)C2(C)C` [Compound 139, (1R,2S,5S)—N—((S)-1-cyan-2-((R)-5-oxo-4-azaspiro[2.4]heptan-6-yl)ethyl)-3-((S)-3-methoxy-3-methyl-2-(2,2,2-trifluoroacetamido)butanoyl)-6,6-dimethyl-3-azabicyclo[3.1.0]hexane-2-carboxamide], for which the IC50 at SARS-COV2 Mpro (Table 5), at 229E Mpro (Table 5) and on OC43 Mpro (Table 5) was less than 2000 nM in each case.

Regarding `CC(C)(C)[C@H](N)C(=O)N1C[C@H]2[C@@H]([C@H]1C(=O)N[C@H](C#N)C[C@@H]1CC3(CC3)NC1=O)C2(C)C` [Compound 235, (1R,2S,5S)-3-((S)-2-amino-3,3-dimethylbutanoyl)-N—((S)-1-cyano-2-((R)-5-oxo-4-azaspiro[2.4]heptan-6-yl)ethyl)-6,6-dimethyl-3-azabicyclo[3.1.0]hexane-2-carboxamide], the IC50 on SARS-COV2 Mpro (Table 3), at 229E Mpro (Table 3) and against OC43 Mpro (Table 3) was less than 2000 nM each time.

On to `C[C@@H](OC(C)(C)C)[C@H](NC(=O)C(F)(F)F)C(=O)N1C[C@H]2[C@@H]([C@H]1C(=O)N[C@H](C#N)C[C@@H]1CC(C)(C)NC1=O)C2(C)C` [Compound 285, (1RSS)-3-[(2S,3R)-3-tert-butoxy-2-[(2,2,2-trifluoroacetyl)amino]butanoyl]-N-[(1S)-1-cyano-2-[(3R)-5,5-dimethyl-2-oxo-pyrrolidin-3-yl]ethyl]-6,6-dimethyl-3-azabicyclo[3.1.0]hexane-2-carboxamide], for which the IC50 on SARS-COV2 Mpro (Table 3), at 229E Mpro (Table 3) and on OC43 Mpro (Table 3) was less than 2000 nM in each case.
